Values quoted from earlier work as cited in US20060160088A1, “Diagnostics and therapeutics for diseases associated with g protein-coupled receptor 40 (gpr40)” (Bayer Healthcare AG, priority 2003, published 2006).

Biological target: GPR40 (Homo sapiens, UniProt O14842)
Settings: activation of GPR40; most potent fatty acid tested

Chain of GPR40 (O14842 whole entry): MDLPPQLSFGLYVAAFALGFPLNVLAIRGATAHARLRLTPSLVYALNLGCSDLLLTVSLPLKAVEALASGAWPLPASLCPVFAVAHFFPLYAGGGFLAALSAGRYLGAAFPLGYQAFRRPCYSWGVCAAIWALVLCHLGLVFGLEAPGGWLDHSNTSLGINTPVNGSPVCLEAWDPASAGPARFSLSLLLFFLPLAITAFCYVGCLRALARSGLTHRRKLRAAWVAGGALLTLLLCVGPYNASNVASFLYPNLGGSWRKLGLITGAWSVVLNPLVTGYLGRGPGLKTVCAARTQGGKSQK

pEC(50): 5.7
Compound: CCCCCCCCC#CCC#CCC#CCCCC(=O)O [Eicosatriynoic acid]
